Experiments:
Phosphodiesterase 4 = Phosphodiesterase 4 (Homo sapiens, UniProt P27815+Q08499+Q07343+Q08493); conditions: Oryctolagus cuniculus; Kidney
Description: Susceptibility to be hydrolysed by a partially purified cAMP phosphodiesterase from rabbit kidney

[1] = Inhibition of cAMP phosphodiesterase preparation from rabbit lung at a substrate concentration of 0.14 uM

Row | Compound | Hydrolysis (Phosphodiesterase 4) | I50 [1]
1 | CCCCNc1ncnc2c1ncn2[C@@H]1O[C@@H]2COP(=O)(O)O[C@H]2[C@H]1O | 0.21 | 33 µM
2 | Nc1ncnc2c1nc(SCc1ccc(Cl)cc1)n2[C@@H]1O[C@@H]2COP(=O)(O)O[C@H]2[C@H]1O | < 0.05 | 11 µM
3 | CCCCNc1ncnc2c1nc(Sc1ccc(Cl)cc1)n2[C@@H]1O[C@@H]2COP(=O)(O)O[C@H]2[C@H]1O | < 0.05 | –
4 | CCN(CC)c1ncnc2c1nc(N(CC)CC)n2[C@@H]1O[C@@H]2COP(=O)(O)O[C@H]2[C@H]1O | < 0.05 | 13 µM
5 | O=P1(O)OC[C@H]2O[C@@H](n3c(SCc4ccccc4)nc4c(NCc5ccccc5)ncnc43)[C@H](O)[C@@H]2O1 | < 0.05 | 29 µM
6 | CCCN(CCC)c1ncnc2c1nc(SCc1ccccc1)n2[C@@H]1O[C@@H]2COP(=O)(O)O[C@H]2[C@H]1O | < 0.05 | –
7 | Cc1ccccc1CSc1nc2c(N)ncnc2n1[C@@H]1O[C@@H]2COP(=O)(O)O[C@H]2[C@H]1O | < 0.05 | 33 µM
8 | O=c1[nH]c2c(Cl)ncnc2n1[C@@H]1O[C@@H]2COP(=O)(O)O[C@H]2[C@H]1O | < 0.05 | > 400 µM
9 | Nc1ncnc2c1nc(Cl)n2[C@@H]1O[C@@H]2COP(=O)(O)O[C@H]2[C@H]1O [TOCLADESINE] | < 0.05 | 59 µM
10 | COc1ccc(Sc2nc3c(N)ncnc3n2[C@@H]2O[C@@H]3COP(=O)(O)O[C@H]3[C@H]2O)cc1 | < 0.05 | 48 µM
11 | Nc1ncnc2c1nc(SCCO)n2[C@@H]1O[C@@H]2COP(=O)(O)O[C@H]2[C@H]1O | < 0.05 | 20 µM
12 | CCCCNc1ncnc2c1nc(SC)n2[C@@H]1O[C@@H]2COP(=O)(O)O[C@H]2[C@H]1O | 0.26 | 53 µM
13 | O=P1(O)OC[C@H]2O[C@@H](n3c(Br)nc4c(NCc5ccccc5)ncnc43)[C@H](O)[C@@H]2O1 | < 0.05 | 61 µM
14 | CCCCN(C)c1ncnc2c1nc(SCc1ccccc1)n2[C@@H]1O[C@@H]2COP(=O)(O)O[C@H]2[C@H]1O | < 0.05 | –
15 | Nc1ncnc2c1nc(N)n2[C@@H]1O[C@@H]2COP(=O)(O)O[C@H]2[C@H]1O | 0.8 | 83 µM
16 | Nc1ncnc2c1nc(SC1CCCCC1)n2[C@@H]1O[C@@H]2COP(=O)(O)O[C@H]2[C@H]1O | < 0.05 | 13 µM
17 | Nc1ncnc2c1nc(SCc1ccc([N+](=O)[O-])cc1)n2[C@@H]1O[C@@H]2COP(=O)(O)O[C@H]2[C@H]1O | < 0.05 | 27 µM
18 | Cc1ccc(CSc2nc3c(N)ncnc3n2[C@@H]2O[C@@H]3COP(=O)(O)O[C@H]3[C@H]2O)cc1 | < 0.05 | 13 µM
19 | Nc1ncnc2c1nc(SCc1ccc(F)cc1)n2[C@@H]1O[C@@H]2COP(=O)(O)O[C@H]2[C@H]1O | < 0.05 | 38 µM
20 | CSc1ncnc2c1nc(SC)n2[C@@H]1O[C@@H]2COP(=O)(O)O[C@H]2[C@H]1O | < 0.05 | 50 µM
21 | CCN(CC)c1ncnc2c1nc(Sc1ccc(Cl)cc1)n2[C@@H]1O[C@@H]2COP(=O)(O)O[C@H]2[C@H]1O | < 0.05 | 3.5 µM
22 | O=P1(O)OC[C@H]2O[C@@H](n3cnc4c(NCc5ccccc5)ncnc43)[C@H](O)[C@@H]2O1 | 0.3 | 130 µM

Row | Compound | Hydrolysis (Phosphodiesterase 4) | I50 [1]
23 | CCSc1nc2c(N)ncnc2n1[C@@H]1O[C@@H]2COP(=O)(O)O[C@H]2[C@H]1O | < 0.05 | 33 µM
24 | CC(C)Sc1nc2c(N)ncnc2n1[C@@H]1O[C@@H]2COP(=O)(O)O[C@H]2[C@H]1O | < 0.05 | 56 µM
25 | O=P1(O)OC[C@H]2O[C@@H](n3c(SCc4ccccc4)nc4c(SCc5ccccc5)ncnc43)[C@H](O)[C@@H]2O1 | < 0.05 | 4.6 µM
26 | O=P1(O)OC[C@H]2O[C@@H](n3cnc4c(=S)[nH]cnc43)[C@H](O)[C@@H]2O1 | 1.1 | 53 µM
27 | Nc1ncnc2c1nc(S)n2[C@@H]1O[C@@H]2COP(=O)(O)O[C@H]2[C@H]1O | < 0.05 | 20 µM
28 | Cc1ccccc1Sc1nc2c(N)ncnc2n1[C@@H]1O[C@@H]2COP(=O)(O)O[C@H]2[C@H]1O | < 0.05 | 29 µM
29 | CCCSc1nc2c(N)ncnc2n1[C@@H]1O[C@@H]2COP(=O)(O)O[C@H]2[C@H]1O | < 0.05 | 37 µM
30 | O=P1(O)OC[C@H]2O[C@@H](n3cnc4c(Cl)ncnc43)[C@H](O)[C@@H]2O1 | 1.2 | 20 µM
31 | O=P1(O)OC[C@H]2O[C@@H](n3c(SCc4ccccc4)nc4c(N5CCCC5)ncnc43)[C@H](O)[C@@H]2O1 | < 0.05 | 5 µM
32 | CCN(CC)c1ncnc2c1nc(Cl)n2[C@@H]1O[C@@H]2COP(=O)(O)O[C@H]2[C@H]1O | 0.1 | 18 µM
33 | Nc1nc2c(Cl)ncnc2n1[C@@H]1O[C@@H]2COP(=O)(O)O[C@H]2[C@H]1O | 0.74 | 200 µM
34 | CCN(CC)c1nc2c(Cl)ncnc2n1[C@@H]1O[C@@H]2COP(=O)(O)O[C@H]2[C@H]1O | 0.1 | 80 µM
35 | Nc1ncnc2c1nc(Sc1ccc(Cl)cc1)n2[C@@H]1O[C@@H]2COP(=O)(O)O[C@H]2[C@H]1O | < 0.05 | –
36 | CCNc1ncnc2c1ncn2[C@@H]1O[C@@H]2COP(=O)(O)O[C@H]2[C@H]1O | 0.2 | 400 µM
37 | Nc1ncnc2c1nc(SCC(=O)[O-])n2[C@@H]1O[C@@H]2COP(=O)(O)O[C@H]2[C@H]1O.[Na+] | < 0.05 | 400 µM
38 | Nc1ncnc2c1nc(SCc1ccccc1)n2[C@@H]1O[C@@H]2COP(=O)(O)O[C@H]2[C@H]1O | < 0.05 | 53 µM
39 | C=CCSc1nc2c(N)ncnc2n1[C@@H]1O[C@@H]2COP(=O)(O)O[C@H]2[C@H]1O | < 0.05 | 29 µM
40 | CC(C)CNc1ncnc2c1nc(Sc1ccc(Cl)cc1)n2[C@@H]1O[C@@H]2COP(=O)(O)O[C@H]2[C@H]1O | < 0.05 | 1.2 µM
41 | Nc1ncnc2c1nc(Sc1ccc(Br)cc1)n2[C@@H]1O[C@@H]2COP(=O)(O)O[C@H]2[C@H]1O | < 0.05 | 240 µM
42 | Nc1ncnc2c1nc(O)n2[C@@H]1O[C@@H]2COP(=O)(O)O[C@H]2[C@H]1O | < 0.05 | 150 µM
43 | Nc1ncnc2c1nc(SCc1cccnc1)n2[C@@H]1O[C@@H]2COP(=O)(O)O[C@H]2[C@H]1O | < 0.05 | 100 µM
44 | O=P1(O)OC[C@H]2O[C@@H](n3c(Sc4ccc(Cl)cc4)nc4c(Nc5ccccc5)ncnc43)[C@H](O)[C@@H]2O1 | < 0.05 | 36 µM

The remaining lines, values ahead:

Row | Hydrolysis (Phosphodiesterase 4) | I50 [1] | Compound
45 | < 0.05 | 30 µM | COc1ccc(CSc2nc3c(N)ncnc3n2[C@@H]2O[C@@H]3COP(=O)(O)O[C@H]3[C@H]2O)cc1
46 | < 0.05 | 16 µM | CCCCCNc1ncnc2c1nc(SCc1ccccc1)n2[C@@H]1O[C@@H]2COP(=O)(O)O[C@H]2[C@H]1O
47 | < 0.05 | 15 µM | CCCCCSc1nc2c(N)ncnc2n1[C@@H]1O[C@@H]2COP(=O)(O)O[C@H]2[C@H]1O
48 | 0.09 | 67 µM | CCN(CC)c1ncnc2c1ncn2[C@@H]1O[C@@H]2COP(=O)(O)O[C@H]2[C@H]1O
49 | < 0.05 | 69 µM | CSc1nc2c(N)ncnc2n1[C@@H]1O[C@@H]2COP(=O)(O)O[C@H]2[C@H]1O
50 | < 0.05 | 10 µM | O=P1(O)OC[C@H]2O[C@@H](n3c(Sc4ccc(Cl)cc4)nc4c(N5CCCCC5)ncnc43)[C@H](O)[C@@H]2O1
51 | 0.54 | 25 µM | O=P1(O)OC[C@H]2O[C@@H](n3cnc4c(SCc5ccccc5)ncnc43)[C@H](O)[C@@H]2O1
52 | < 0.05 | – | Nc1ncnc2c1nc(Br)n2[C@@H]1O[C@@H]2COP(=O)(O)O[C@H]2[C@H]1O
53 | < 0.05 | 2 µM | CC(C)CCNc1ncnc2c1nc(SCc1ccccc1)n2[C@@H]1O[C@@H]2COP(=O)(O)O[C@H]2[C@H]1O
54 | < 0.05 | – | CCCCNc1ncnc2c1nc(Br)n2[C@@H]1O[C@@H]2COP(=O)(O)O[C@H]2[C@H]1O
55 | 0.46 | 80 µM | CSc1ncnc2c1ncn2[C@@H]1O[C@@H]2COP(=O)(O)O[C@H]2[C@H]1O
56 | < 0.05 | 25 µM | CCCCSc1nc2c(N)ncnc2n1[C@@H]1O[C@@H]2COP(=O)(O)O[C@H]2[C@H]1O
57 | 0.22 | 50 µM | CNc1ncnc2c1ncn2[C@@H]1O[C@@H]2COP(=O)(O)O[C@H]2[C@H]1O
58 | < 0.05 | 57 µM | Nc1ncnc2c1nc(Sc1ccccc1)n2[C@@H]1O[C@@H]2COP(=O)(O)O[C@H]2[C@H]1O
59 | < 0.05 | 30 µM | CCCCCCNc1ncnc2c1nc(SCc1ccccc1)n2[C@@H]1O[C@@H]2COP(=O)(O)O[C@H]2[C@H]1O
60 | 0.19 | 17 µM | CSc1nc2c(NCc3ccccc3)ncnc2n1[C@@H]1O[C@@H]2COP(=O)(O)O[C@H]2[C@H]1O
61 | 0.3 | 83 µM | Nc1nc2c(=S)[nH]cnc2n1[C@@H]1O[C@@H]2COP(=O)(O)O[C@H]2[C@H]1O
62 | < 0.05 | 25 µM | Nc1ncnc2c1nc(SCc1cccc([N+](=O)[O-])c1)n2[C@@H]1O[C@@H]2COP(=O)(O)O[C@H]2[C@H]1O
63 | < 0.05 | 4.8 µM | O=P1(O)OC[C@H]2O[C@@H](n3c(SCc4ccccc4)nc4c(N5CCCCC5)ncnc43)[C@H](O)[C@@H]2O1
